One data set has as its target T1, 5-HT2A (Homo sapiens, UniProt P28223).
T1 construct: expressed in transfected cells; host or cells: CHO
As to the kind of experiment: 5-HT2A competition binding assay ([3H]-Ketanserin). The following applies: CHO cells with overexpressed receptor, read-out: Ki ± S.D. 5-HT2A.

For another data set, the target named is T2, 5-HT7R (Homo sapiens, UniProt P34969).
T2 construct: expressed in transfected cells; host or cells: HEK293
As to the kind of experiment: cAMP functional test: inhibition of cAMP production induced by 5-CT (10 nM). Type of data set: cell-based. The following applies: for Kb: cAMP production induced by 5-CT (10 nM), HEK-293 cells expressing 5-HT7R, read-out: KB (5-HT7R antagonistic properties); for effect on 5-CT-induced cAMP accumulation: transfected HEK cells expressing 5-HT7R, 5-CT (10 nM). Background: cAMP levels reflect the balance of adenylyl cyclase and phosphodiesterase activity.

The next data set has as its target T3, 5-HT1A (Homo sapiens, UniProt P08908).
T3 construct: expressed in transfected cells; host or cells: HEK293
T3 sequence (P08908 1-422): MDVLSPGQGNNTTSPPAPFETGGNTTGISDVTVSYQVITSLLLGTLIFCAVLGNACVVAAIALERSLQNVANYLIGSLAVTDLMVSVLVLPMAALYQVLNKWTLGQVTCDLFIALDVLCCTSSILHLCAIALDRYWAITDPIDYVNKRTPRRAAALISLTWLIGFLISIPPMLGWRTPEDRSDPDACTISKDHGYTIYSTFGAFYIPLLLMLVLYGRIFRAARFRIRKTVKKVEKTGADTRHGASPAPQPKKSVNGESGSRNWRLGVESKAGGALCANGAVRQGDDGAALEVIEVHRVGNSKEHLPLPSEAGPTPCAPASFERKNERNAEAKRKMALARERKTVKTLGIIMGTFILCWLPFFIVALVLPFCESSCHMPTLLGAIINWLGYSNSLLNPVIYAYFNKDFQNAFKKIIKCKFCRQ
As to the kind of experiment: 5-HT1A competition binding assay ([3H]-8-OH-DPAT). The following applies: HEK293 cells with overexpressed receptor, read-out: Ki ± S.D. 5-HT1A.

Another data set deals with T4, dopaminergic D2 (Homo sapiens, UniProt P14416).
T4 construct: expressed in transfected cells; host or cells: HEK293
As to the kind of experiment: D2 competition binding assay ([3H]-Raclopride). The following applies: for Ki: [3H]-Raclopride, HEK293 cells with overexpressed receptor, read-out: Ki ± S.D. D2.

For the next data set, the target named is T5, human 5-HT7b receptors (Homo sapiens, UniProt P34969).
T5 construct: expressed in transfected cells; host or cells: HEK293
As to the kind of experiment: 5-HT7 competition radioligand binding assay ([3H]5-CT). The following applies: HEK293 cells overexpressing human 5-HT7b receptors, at least two independent experiments in triplicate; for Ki: read-out: Ki ± S.D. 5-HT7 binding affinity. As for the experimental part:
Novel scaffold endowed with 5-HT7R activity was identified by screening of the in-house compound library in a single compound concentration of 1 µM in a competition radioligand binding assay using [^3H]5-CT and HEK293 cells overexpressing the human 5-HT7b receptors.

The next data set deals with T6, 5-HT6 (Homo sapiens, UniProt P50406).
T6 construct: expressed in transfected cells; host or cells: HEK293
As to the kind of experiment: 5-HT6 competition binding assay ([3H]-LSD). The following applies: for Ki: [3H]-LSD, HEK293 cells with overexpressed receptor, read-out: Ki ± S.D. 5-HT6.

“And” between values parts separate entries of the source, which are not always exact repeats. Identical values can stand only once. Counter-ions that a name gives are not always drawn.

Broadly, the melting point is the temperature of the solid-liquid transition. As usually defined, the Ki is a measure of affinity in units of concentration, obtained from inhibition or displacement. As a reminder, the Kb is the equilibrium dissociation constant of an antagonist, usually derived from a functional assay.

T5 sequence (P34969 1-432): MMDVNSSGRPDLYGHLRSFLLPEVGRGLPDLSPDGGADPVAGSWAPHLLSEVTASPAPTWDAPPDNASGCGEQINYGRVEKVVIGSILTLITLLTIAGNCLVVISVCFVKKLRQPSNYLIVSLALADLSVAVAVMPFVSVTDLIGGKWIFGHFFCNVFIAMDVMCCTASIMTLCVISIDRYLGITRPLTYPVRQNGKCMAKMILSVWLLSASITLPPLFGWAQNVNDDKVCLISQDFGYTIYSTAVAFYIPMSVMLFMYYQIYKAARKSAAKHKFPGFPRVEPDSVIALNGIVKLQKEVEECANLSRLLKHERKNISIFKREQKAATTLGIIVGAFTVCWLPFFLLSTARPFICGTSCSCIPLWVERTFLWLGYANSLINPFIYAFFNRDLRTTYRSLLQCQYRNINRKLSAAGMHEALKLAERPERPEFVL
T2 sequence (P34969 1-432): as above
T6 sequence (P50406 whole entry, species assumed): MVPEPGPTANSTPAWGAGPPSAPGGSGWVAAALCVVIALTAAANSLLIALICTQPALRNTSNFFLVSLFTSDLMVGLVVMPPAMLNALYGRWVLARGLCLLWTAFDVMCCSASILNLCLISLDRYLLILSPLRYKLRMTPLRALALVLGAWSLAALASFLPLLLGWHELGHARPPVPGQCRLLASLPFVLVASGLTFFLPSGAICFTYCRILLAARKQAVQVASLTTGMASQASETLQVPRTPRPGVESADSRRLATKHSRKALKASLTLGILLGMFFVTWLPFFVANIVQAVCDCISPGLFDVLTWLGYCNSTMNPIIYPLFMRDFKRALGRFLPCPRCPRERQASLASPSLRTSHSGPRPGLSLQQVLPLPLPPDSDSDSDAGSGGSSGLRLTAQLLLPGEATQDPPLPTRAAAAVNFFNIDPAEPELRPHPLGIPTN
T1 sequence (P28223 whole entry, species assumed): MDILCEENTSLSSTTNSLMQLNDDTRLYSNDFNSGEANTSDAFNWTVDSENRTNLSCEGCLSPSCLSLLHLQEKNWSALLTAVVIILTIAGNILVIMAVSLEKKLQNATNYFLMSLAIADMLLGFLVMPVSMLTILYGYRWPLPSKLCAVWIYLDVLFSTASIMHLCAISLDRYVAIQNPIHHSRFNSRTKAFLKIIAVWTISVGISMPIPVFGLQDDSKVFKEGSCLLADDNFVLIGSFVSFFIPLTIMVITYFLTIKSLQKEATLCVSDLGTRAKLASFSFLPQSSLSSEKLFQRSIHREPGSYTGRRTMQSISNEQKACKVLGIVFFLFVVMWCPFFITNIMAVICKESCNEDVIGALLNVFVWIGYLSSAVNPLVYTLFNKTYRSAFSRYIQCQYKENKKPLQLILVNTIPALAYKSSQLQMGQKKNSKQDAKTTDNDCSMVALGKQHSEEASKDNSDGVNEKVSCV
T4 sequence (P14416 whole entry): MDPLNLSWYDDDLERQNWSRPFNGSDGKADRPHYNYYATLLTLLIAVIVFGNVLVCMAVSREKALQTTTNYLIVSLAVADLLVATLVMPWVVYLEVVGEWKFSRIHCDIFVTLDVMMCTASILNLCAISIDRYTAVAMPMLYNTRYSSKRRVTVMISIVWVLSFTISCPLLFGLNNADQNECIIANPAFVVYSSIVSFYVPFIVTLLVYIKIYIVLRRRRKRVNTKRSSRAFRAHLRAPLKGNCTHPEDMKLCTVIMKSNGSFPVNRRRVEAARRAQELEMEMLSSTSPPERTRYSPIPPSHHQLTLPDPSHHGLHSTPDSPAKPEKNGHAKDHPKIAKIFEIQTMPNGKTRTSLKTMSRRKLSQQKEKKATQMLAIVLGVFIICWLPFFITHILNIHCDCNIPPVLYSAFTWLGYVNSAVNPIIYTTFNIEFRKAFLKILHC

In the case of `c1cc(-c2ccoc2)nc(N2CC[N+]3(CCOCC3)CC2)n1` (as salt: iodide) [Compound 47, 4-[4-(3-Furyl)pyrimidin-2-yl]piperazine-1-spiro-1-morpholinium iodide], the melting point was > 200 °C (dec.).
As to `CCc1cc(-c2ccoc2)nc(N2CCN(C)CC2)n1` [Compound 12, 4-Ethyl-6-(3-furyl)-2-(4-methylpiperazin-1-yl)pyrimidine], the Ki at 5-HT2A was 10 nM and 12 nM; on 5-HT1A, 1500 ± 164 nM; at dopaminergic D2, 466 ± 39 nM; at human 5-HT7b receptors, 7.1 ± 1.4 nM; at 5-HT6 it was 121 ± 14 nM. For the same molecule, the Kb on 5-HT7R is 12 nM. The “effect on 5-CT-induced cAMP accumulation” value at 5-HT7R is “dose-dependently decrease”.
`CCCCc1cc(-c2ccoc2)nc(N2CCN(C)CC2)n1` [Compound 13, 4-(n-Butyl)-6-(3-furyl)-2-(4-methylpiperazin-1-yl)pyrimidine]: the Ki on 5-HT2A was 12 nM and 10 nM; at 5-HT1A it was 637 ± 53 nM; on dopaminergic D2 it was 37 ± 4 nM; at human 5-HT7b receptors, 1.6 ± 0.2 nM; at 5-HT6, 12 ± 2 nM. Also, the Kb on 5-HT7R amounted to 60 nM. The “effect on 5-CT-induced cAMP accumulation” value at 5-HT7R was “dose-dependently decrease”. Moreover, the “fold more active than 12 at D2 receptors” value on dopaminergic D2 (13 versus 12) worked out at 13 fold. In addition, at 5-HT6 (13 versus 12), the “fold more active than 12 at 5-HT6” value was 10 fold.
For `c1cc(-c2ccoc2)nc(N2CCOCC2)n1` [Compound 44], the melting point lay within 58 to 59 °C. For the same molecule, on human 5-HT7b receptors, the “Ki ± S.D. 5-HT7 binding affinity” value was “no affinity” and the Ki was more than 10000 nM.
On to `CC1CCN(CC[C@H]2CCCN2S(=O)(=O)c2cccc(O)c2)CC1` [SB-269970, (2R)-1-((3-hydroxyphenyl)sulfonyl)-2-(2-(4-methyl-1-piperidinyl)ethyl)pyrrolidine, reference compound], for which the “effect on 5-CT-induced cAMP accumulation” value on 5-HT7R is given as “dose-dependently decrease”.

Values taken from publication PMC6272903, “Synthesis and Structure-Activity Relationship Analysis of 5-HT7 Receptor Antagonists: Piperazin-1-yl Substituted Unfused Heterobiaryls” (Molecules, 2016).
